Assay results from PubChem BioAssay (NCI).
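Each compound was tested at five concentrations against cells in 96-well plates for 48 hours. The concentration for 50% growth inhibition is given as GI50. TGI denotes the concentration required for complete inhibition of growth.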

Key:
Assay in all cases: DTP human tumour cell line panel, 48 h
[1] = test system: MOLT-4 leukemia
[2] = test system: TK-10 renal
[3] = test system: RXF 393 renal
[4] = test system: HL-60(TB) leukemia
[5] = test system: IGROV1 ovarian
[6] = test system: HCT-15 colon
[7] = test system: HS 578T breast
[8] = test system: SK-OV-3 ovarian
[9] = test system: SF-539 CNS
[10] = test system: MDA-MB-231 breast
[11] = test system: SK-MEL-5 melanoma
[12] = test system: HOP-92 NSCLC
[13] = test system: ACHN renal
[14] = test system: EKVX NSCLC
[15] = test system: HCT-116 colon
[16] = test system: OVCAR-5 ovarian
[17] = test system: U251 CNS
[18] = test system: NCI-H226 lung
[19] = test system: SF-268 CNS
[20] = test system: T-47D breast
[21] = test system: DU-145 prostate
[22] = test system: NCI-H522 lung
[23] = test system: UACC-62 melanoma
[24] = test system: SF-295 CNS
[25] = test system: SR leukemia
[26] = test system: UO-31 renal
[27] = test system: SK-MEL-2 melanoma
[28] = test system: SN12C renal
[29] = test system: SW-620 colon
[30] = test system: KM12 colon
[31] = test system: HOP-62 NSCLC
[32] = test system: SK-MEL-28 melanoma
[33] = test system: MCF7 breast
[34] = test system: SNB-75 CNS
[35] = test system: CCRF-CEM leukemia
[36] = test system: NCI/ADR-RES ovarian
[37] = test system: SNB-19 CNS
[38] = test system: RPMI-8226 leukemia
[39] = test system: MALME-3M melanoma
[40] = test system: NCI-H23 lung
[41] = test system: LOX IMVI melanoma
[42] = test system: BT-549 breast
[43] = test system: 786-0 renal
[44] = test system: NCI-H460 lung
[45] = test system: MDA-MB-435
[46] = test system: OVCAR-4 ovarian
[47] = test system: CAKI-1 renal
[48] = test system: HT29 colon
[49] = test system: UACC-257 melanoma
[50] = test system: K-562 leukemia
[51] = test system: OVCAR-8 ovarian
[52] = test system: PC-3 prostate
[53] = test system: M14 melanoma
[54] = test system: A498 renal
[55] = test system: HCC-2998 colon
[56] = test system: COLO 205 colon
[57] = test system: A549 NSCLC

In the case of `CCOc1ccc(NC2=C(Cl)C(=O)c3nc(C)ccc3C2=O)cc1`, the GI50 [1] is reported as 2490 nM, the TGI [1] is reported as > 100000 nM and the GI50 [2] is reported as 2300 nM. It also gave a TGI [2] of 3770 nM, a GI50 [3] of 1570 nM and a TGI [3] of 2960 nM. For the same molecule, the GI50 [4] was 1470 nM, the TGI [4] was 4180 nM and the GI50 [5] was 1360 nM. It also gave a TGI [5] of 2760 nM, a GI50 [6] of 1300 nM and a TGI [6] of 2950 nM. For the same molecule, the GI50 [7] was 2220 nM, the TGI [7] was 5820 nM and the GI50 [8] was 11000 nM. The TGI [8] was 30100 nM, the GI50 [9] was 1680 nM and the TGI [9] was 3130 nM. It also gave a GI50 [10] of 1170 nM, a TGI [10] of 2500 nM and a GI50 [11] of 1720 nM. For the same molecule, the TGI [11] was 3110 nM, the GI50 [12] was 2020 nM and the TGI [12] was 3510 nM. The GI50 [13] was 1570 nM, the TGI [13] was 2920 nM and the GI50 [14] was 1610 nM. The TGI [14] was 3120 nM, the GI50 [15] was 1320 nM and the TGI [15] was 2790 nM. The GI50 [16] was 1920 nM, the TGI [16] was 3460 nM and the GI50 [17] was 1800 nM. It also gave a TGI [17] of 3540 nM, a GI50 [18] of 1840 nM and a TGI [18] of 4520 nM. The GI50 [19] was 1550 nM, the TGI [19] was 3090 nM and the GI50 [20] was 1010 nM. For the same molecule, the TGI [20] was 3910 nM, the GI50 [21] was 1720 nM and the TGI [21] was 3130 nM. It also gave a GI50 [22] of 1750 nM, a TGI [22] of 3220 nM and a GI50 [23] of 1810 nM. It also gave a TGI [23] of 3290 nM, a GI50 [24] of 1860 nM and a TGI [24] of 3430 nM. For the same molecule, the GI50 [25] was 1090 nM, the TGI [25] was > 100000 nM and the GI50 [26] was 1430 nM. For the same molecule, the TGI [26] was 2750 nM, the GI50 [27] was 1630 nM and the TGI [27] was 3030 nM. It also gave a GI50 [28] of 1580 nM, a TGI [28] of 2990 nM and a GI50 [29] of 1830 nM. For the same molecule, the TGI [29] was 3510 nM, the GI50 [30] was 1440 nM and the TGI [30] was 3070 nM. The GI50 [31] was 1740 nM, the TGI [31] was 3230 nM and the GI50 [32] was 1730 nM. For the same molecule, the TGI [32] was 3140 nM, the GI50 [33] was 1540 nM and the TGI [33] was 3820 nM. It also gave a GI50 [34] of 1460 nM, a TGI [34] of 2790 nM and a GI50 [35] of 2110 nM. For the same molecule, the TGI [35] was > 100000 nM, the GI50 [36] was 1700 nM and the TGI [36] was 4110 nM. The GI50 [37] was 1680 nM, the TGI [37] was 3160 nM and the GI50 [38] was 1670 nM. The TGI [38] was 5330 nM, the GI50 [39] was 1650 nM and the TGI [39] was 3160 nM. It also gave a GI50 [40] of 1350 nM, a TGI [40] of 2850 nM and a GI50 [41] of 1060 nM. It also gave a TGI [41] of 2330 nM, a GI50 [42] of 1430 nM and a TGI [42] of 2800 nM. For the same molecule, the GI50 [43] was 1720 nM, the TGI [43] was 3190 nM and the GI50 [44] was 3080 nM. The TGI [44] was 10400 nM, the GI50 [45] was 442 nM and the TGI [45] was 1530 nM. The GI50 [46] was 1130 nM, the TGI [46] was 2370 nM and the GI50 [47] was 1600 nM. For the same molecule, the TGI [47] was 2970 nM, the GI50 [48] was 2870 nM and the TGI [48] was 7080 nM. For the same molecule, the GI50 [49] was 1390 nM, the TGI [49] was 2780 nM and the GI50 [50] was 1170 nM. For the same molecule, the TGI [50] was > 100000 nM, the GI50 [51] was 1570 nM and the TGI [51] was 3010 nM. It also gave a GI50 [52] of 1300 nM, a TGI [52] of 2770 nM and a GI50 [53] of 1680 nM. The TGI [53] was 3230 nM, the GI50 [54] was 1560 nM and the TGI [54] was 5520 nM. The GI50 [55] was 1760 nM, the TGI [55] was 3250 nM and the GI50 [56] was 1860 nM. It also gave a TGI [56] of 3640 nM, a GI50 [57] of 2090 nM and a TGI [57] of 4640 nM.
